In US10844044B2 (Vanderbilt University, priority 2018, dated 2020):
Like-named read-outs stand apart in the source and are kept apart here. One block for each compound: values may come before it.

How the values were obtained:
[1] = system: MV4:11 human cancer cell lines; test: Anti-proliferative activity, CellTiter-Glo viability assay, 7 day protocol; format: cell-based; conditions: MV4:11 cells, 7 day incubation, read-out: GI50 on cellular proliferation of MV4:11 human cancer cell lines
Procedure: Viability assays are performed by dispensing […] into each well of an opaque 384-well plate and adding compounds at the indicated concentrations in a final volume of 32 μL and a final concentration of DMSO of 0.1% for all samples. After a set incubation period, 7 day protocol, the viability of cells in each well is assessed using the CellTiter-Glo assay (Promega), read on a GloMax 96 Microplane Luminometer (Promega). Serial dilutions of each cell type are included in all assays to generate standard curves and determine assay measurements are taken within the dynamic range of the instrument. GI50 values are calculated based on three biological replicates, each with three technical replicates. Data are expressed as mean plus/minus S.E.M.

WDR5 = WDR5 (Homo sapiens (Human), UniProt P61964); test: TR-FRET binding assay (displacement of 10mer-Thr-FAM probe from WDR5); conditions: read-out: Ki for Inhibition of WDR5 by TR-FRET assay
[2] = TR-FRET, 10mer-Thr-FAM probe, WDR5-His tag 2 nM, pH 7.0

Compound: 3-(1-Ethyl-3-(trifluoromethyl)-1H-pyrazol-4-yl)-5-((2-iminooxazolidin-3-yl)methyl)-N-(1-methyl-6-oxo-1,6-dihydropyridin-3-yl)methyl)benzamide [Example 293]
GI50 [1]: 480 nM
Ki (WDR5): 0.54 nM

Compound: COc1cc(OC)cc([C@@H](NC(=O)c2cc(Cn3ccoc3=N)cc(-c3ccc(F)cc3Cl)c2)C2CC2)c1 (stereo in doubt) [Example 249, 2′-Chloro-N-(cyclopropyl(3,5-dimethoxyphenyl)methyl)-4′-fluoro-5-((2-iminooxazol-3(2H)-yl)methyl)-[1,1′-biphenyl]-3-carboxamide]
GI50 ([1]; Homo sapiens, MV4-11, 168 h): 370 nM
Ki (WDR5; [2]): < 0.1 nM

Compound: Cc1nc(F)ccc1-c1cc(Cn2ccn(C)c2=N)cc(C(=O)NCc2ccc(Cl)c(Cl)c2)c1 [Example 1, N-(3,4-Dichlorobenzyl)-3-(6-fluoro-2-methylpyridin-3-yl)-5-((2-imino-3-methyl-2,3-dihydro-1H-imidazol-1-yl)methyl)benzamide]
GI50 ([1]; Homo sapiens, MV4-11, 168 h): 300 nM
Ki (WDR5; [2]): < 0.1 nM

Compound: Cc1ccnc(C(NC(=O)c2cc(Cn3ccn(C)c3=N)cc(-c3ccc(F)nc3C)c2)C2CC2)c1 (stereo not shown) [Example 3, N-(Cyclopropyl(4-methylpyridin-2-yl)methyl)-3-(6-fluoro-2-methylpyridin-3-yl)-5-((2-imino-3-methyl-2,3-dihydro-1H-imidazol-1-yl)methyl)benzamide]
GI50 ([1]; Homo sapiens, MV4-11, 168 h): 550 nM
Ki (WDR5; [2]): < 0.1 nM

Compound: COc1ccnc(CNC(=O)c2cc(Cn3ccn(C)c3=N)cc(-c3ccncc3C)c2)c1 [Example 8, 3-((2-Imino-3-methyl-2,3-dihydro-1H-imidazol-1-yl)methyl)-N-((4-methoxypyridin-2-yl)methyl)-5-(3-methylpyridin-4-yl)benzamide]
GI50 ([1]; Homo sapiens, MV4-11, 168 h): 170 nM
Ki (WDR5; [2]): 0.27 nM

Compound: Cc1ccnc(C(NC(=O)c2cc(Cn3ccn(C)c3=N)cc(-c3ccc(F)cc3C)c2)C2CC2)c1 (stereo not shown) [Example 9, N-(Cyclopropyl(4-methylpyridin-2-yl)methyl)-4′-fluoro-5-((2-imino-3-methyl-2,3-dihydro-1H-imidazol-1-yl)methyl)-2′-methyl-[1,1′-biphenyl]-3-carboxamide]
GI50 ([1]; Homo sapiens, MV4-11, 168 h): 220 nM
Ki (WDR5; [2]): 0.15 nM

Compound: COc1ccnc(CNC(=O)c2cc(Cn3ccn(C)c3=N)cc(-c3cc(C)ccc3OC)c2)c1 [Example 10, 5-((2-Imino-3-methyl-2,3-dihydro-1H-imidazol-1-yl)methyl)-2′-m ethoxy-N-((4-methoxypyridin-2-yl)methyl)-5′-methyl-[1,1′-biphenyl]-3-carboxamide]
GI50 ([1]; Homo sapiens, MV4-11, 168 h): 2300 nM
Ki (WDR5; [2]): 1.5 nM

Compound: Cc1cnccc1-c1cc(Cn2ccn(C)c2=N)cc(C(=O)NCc2ccc(Cl)c(Cl)c2)c1 [Example 25, N-(3,4-dichlorobenzyl)-3-((2-imino-3-methyl-2,3-dihydro-1H-imidazol-1-yl)methyl)-5-(3-methylpyridin-4-yl)benzamide]
GI50 ([1]; Homo sapiens, MV4-11, 168 h): 6100 nM
Ki (WDR5; [2]): 1.3 nM

Compound: Cc1ccc2[nH]ncc2c1-c1cc(Cn2ccn(C)c2=N)cc(C(=O)NCc2ccc(Cl)c(Cl)c2)c1 [Example 27, N-(3,4-Dichlorobenzyl)-3-((2-imino-3-methyl-2,3-dihydro-1H-imidazol-1-yl)methyl)-5-(5-methyl-1H-indazol-4-yl)benzamide]
GI50 ([1]; Homo sapiens, MV4-11, 168 h): 3100 nM
Ki (WDR5; [2]): 1.5 nM

Compound: Cc1cc(F)cc(F)c1-c1cc(Cn2ccn(C)c2=N)cc(C(=O)NCc2ccc(Cl)c(Cl)c2)c1 [Example 28, N-(3,4-Dichlorobenzyl)-2′,4′-difluoro-5-((2-imino-3-methyl-2,3-dihydro-1H-imidazo-1-yl)methyl)-6′-methyl-[1,1′-biphenyl]-3-carboxamide]
GI50 ([1]; Homo sapiens, MV4-11, 168 h): 1300 nM
Ki (WDR5; [2]): 0.35 nM

Compound: Cc1cc(CNC(=O)c2cc(Cn3ccn(C)c3=N)cc(-c3c(C)ccc4[nH]ncc34)c2)ccc1Cl [Example 33, N-(4-Chloro-3-methylbenzyl)-3-((2-imino-3-methyl-2,3-dihydro-1H-imidazol-1-yl)methyl)-5-(5-methyl-1H-indazol-4-yl)benzamide]
GI50 ([1]; Homo sapiens, MV4-11, 168 h): 4900 nM
Ki (WDR5; [2]): 0.99 nM

Compound: COc1cc(CN(C)C(=O)c2cc(Cn3ccn(C)c3=N)cc(-c3c(C)ccc4[nH]ncc34)c2)cc(OC)c1 [Example 34, N-(3,5-Dimethoxybenzyl)-3-((2-imino-3-methyl-2,3-dihydro-1H-imidazol-1-yl)methyl)-N-methyl-5-(5-methyl-1H-indazol-4-yl)benzamide]
GI50 ([1]; Homo sapiens, MV4-11, 168 h): 30000 nM
Ki (WDR5; [2]): 16 nM

Compound: COc1cc(CNC(=O)c2cc(Cn3ccn(C)c3=N)cc(-c3c(C)ccc4[nH]ncc34)c2)cc(OC)c1 [Example 35, N-(3,5-Dimethoxybenzyl)-3-((2-imino-3-methyl-2,3-dihydro-1H-imidazol-1-yl)methyl)-5-(5-methyl-1H-indazol-4-yl)benzamide]
GI50 ([1]; Homo sapiens, MV4-11, 168 h): 9000 nM
Ki (WDR5; [2]): 1.3 nM

Compound: Cc1ccnc(C(NC(=O)c2cc(Cn3ccn(C)c3=N)cc(-c3cccnc3C)c2)C2CC2)c1 (stereo not shown) [Example 37, N-(Cyclopropyl(4-methylpyridin-2-yl)methyl)-3-((2-imino-3-methyl-2,3-dihydro-1H-imidazol-1-yl)methyl)-5-(2-methylpyridin-3-yl)benzamide]
GI50 ([1]; Homo sapiens, MV4-11, 168 h): 3800 nM
Ki (WDR5; [2]): 0.4 nM

Compound: Cc1cc(CNC(=O)c2cc(Cn3ccn(C)c3=N)cc(-c3cccnc3C)c2)ncn1 [Example 38, 3-((2-Imino-3-methyl-2,3-dihydro-1H-imidazol-1-yl)methyl)-5-(2-methylpyridin-3-yl)-N-((6-methylpyrimidin-4-yl)methyl)benzamide]
GI50 ([1]; Homo sapiens, MV4-11, 168 h): 6000 nM
Ki (WDR5; [2]): 3.7 nM

Compound: Cc1ncccc1-c1cc(Cn2ccn(C)c2=N)cc(C(=O)NC(C2CC2)C2CC2)c1 [Example 39, N-(Dicyclopropylmethyl)-3-((2-imino-3-methyl-2,3-dihydro-1H-imidazol-1-yl)methyl)-5-(2-methylpyridin-3-yl)benzamide]
GI50 ([1]; Homo sapiens, MV4-11, 168 h): 30000 nM
Ki (WDR5; [2]): 17 nM

Compound: Cc1cc(C)nc(CNC(=O)c2cc(Cn3ccn(C)c3=N)cc(-c3cccnc3C)c2)n1 [Example 42, N-((4,6-Dimethylpyrimidin-2-yl)methyl)-3-((2-imino-3-methyl-2,3-dihydro-1H-imidazol-1-yl)methyl)-5-(2-methylpyridin-3-yl)benzamide]
GI50 ([1]; Homo sapiens, MV4-11, 168 h): 28000 nM
Ki (WDR5; [2]): 10 nM

Compound: Cc1ncccc1-c1cc(Cn2ccn(C)c2=N)cc(C(=O)NCc2ncc(Cl)cn2)c1 [Example 44, N-((5-Chloropyrimidin-2-yl)methyl)-3-((2-imino-3-methyl-2,3-dihydro-1H-imidazol-1-yl)methyl)-5-(2-methylpyridin-3-yl)benzamide]
GI50 ([1]; Homo sapiens, MV4-11, 168 h): 22000 nM
Ki (WDR5; [2]): 9.2 nM

Compound: Cc1cc(CNC(=O)c2cc(Cn3ccn(C)c3=N)cc(-c3cccc4[nH]nc(C)c34)c2)ccc1Cl [Example 46, N-(4-chloro-3-methylbenzyl)-3-((2-imino-3-methyl-2,3-dihydro-1H-imidazol-1-yl)methyl)-5-(3-methyl-1H-indazol-4-yl)benzamide]
GI50 ([1]; Homo sapiens, MV4-11, 168 h): 5900 nM
Ki (WDR5; [2]): 1.3 nM

GI50 ([1]; Homo sapiens, MV4-11, 168 h): 300 nM
Compound: COc1cc(CNC(=O)c2cc(Cn3ccoc3=N)cc(-c3cccnc3C(F)(F)F)c2)cc(OC)c1 [Example 244, N-(3,5-Dimethoxybenzyl)-3-((2-iminooxazol-3(2H)-yl)methyl)-5-(2-(trifluoromethyl)pyridin-3-yl)benzamide]

GI50 ([1]; Homo sapiens, MV4-11, 168 h): 180 nM
Compound: COc1cc(OC)cc(C(NC(=O)c2cc(Cn3ccoc3=N)cc(-c3cccnc3C(F)(F)F)c2)C2CC2)c1 (stereo not shown) [Example 245, N-(Cyclopropyl(3,5-dimethoxyphenyl)methyl)-3-((2-iminooxazol-3(2H)-yl)methyl)-5-(2-(trifluoromethyl)pyridin-3-yl)benzamide]

GI50 ([1]; Homo sapiens, MV4-11, 168 h): < 100 nM
Compound: Cc1cc([C@@H](NC(=O)c2cc(CN3CCOC3=N)cc(-c3cccnc3C(F)(F)F)c2)C2CC2)ccc1F [Example 253, (S)-(Cyclopropyl(4-fluoro-3-methylphenyl)methyl)-3-((2-iminooxazolidin-3-yl)methyl)-5-(2-(trifluoromethyl)pyridin-3-yl)benzamide]

GI50 ([1]; Homo sapiens, MV4-11, 168 h): < 100 nM
Compound: CCn1cc(-c2cc(CN3CCOC3=N)cc(C(=O)N[C@H](c3ccc(F)c(C)c3)C3CC3)c2)c(C(F)(F)F)n1 [Example 276, (S)—N-(Cyclopropyl(4-fluoro-3-methylphenyl)methyl)-3-(1-ethyl-3-(trifluoromethyl) H-pyrazol-4-yl)-5-((2-iminooxazolidin-3-yl)methyl)benzamide]

GI50 ([1]; Homo sapiens, MV4-11, 168 h): 710 nM
Compound: CCn1cc(-c2cc(Cn3ccoc3=N)cc(C(=O)NCc3ccc(=O)n(C)c3)c2)c(C(F)(F)F)n1 [Example 292, 3-(1-Ethyl-3-(trifluoromethyl)-1H-pyrazol-4-yl)-5-((2-iminooxazol-3(2H)-yl)methyl)-N-((1-methyl-6-oxo-1,6-dihydropyridin-3-yl)methyl)benzamide]

GI50 ([1]; Homo sapiens, MV4-11, 168 h): 910 nM
Compound: COc1cc(CNC(=O)c2cc(Cn3ccsc3=N)cc(-c3ccc(F)cc3C)c2)cc(OC)c1 [Example 307, N-(3,5-Dimethoxybenzyl)-4′-fluoro-5-((2-iminothiazol-3(2H)-yl)methyl)-2′-methyl-[1,1′-biphenyl]-3-carboxamide]

GI50 ([1]; Homo sapiens, MV4-11, 168 h): 950 nM
Compound: Cc1nc(F)ccc1-c1cc(CN2CCCC2=N)cc(C(=O)NCc2ccc(Cl)c(Cl)c2)c1 [Example 331, N-(3,4-Dichlorobenzyl)-3-(6-fluoro-2-methylpyridin-3-yl)-5-((2-iminopyrrolidin-1-yl)methyl)benzamide]

GI50 ([1]; Homo sapiens, MV4-11, 168 h): 1400 nM
Compound: Cc1cc(-c2cc(CN3CCCC3=N)cc(C(=O)NCc3ccc(Cl)c(Cl)c3)c2)c(C)cc1F [Example 332, N-(3,4-Dichlorobenzyl)-4′-fluoro-5-((2-iminopyrrolidin-1-yl)methyl)-2′,5′-dimethyl-[1,1′-biphenyl]-3-carboxamide]
